One assay has as its target T1, recombinant human PDE4B (Homo sapiens, UniProt Q07343).
T1 construct: amino acid 305-end; GST (N); host or cells: Sf9 insect cells (baculovirus)
The experiment in a line: In vitro inhibitory activity against PDE 4B enzyme (fluorescence polarization). Format: biochemical. To be noted: 1 μM cAMP substrate. (In general: Fluorescence polarisation rises when a labelled molecule tumbles more slowly, as on binding a larger partner.)

The target in the next assay is T2, CYP1A2 (Homo sapiens, UniProt P05177).
T2 construct: co-incubated with human liver microsomes; from tissue; host or cells: human liver microsomes
T2 sequence (P05177 1-516): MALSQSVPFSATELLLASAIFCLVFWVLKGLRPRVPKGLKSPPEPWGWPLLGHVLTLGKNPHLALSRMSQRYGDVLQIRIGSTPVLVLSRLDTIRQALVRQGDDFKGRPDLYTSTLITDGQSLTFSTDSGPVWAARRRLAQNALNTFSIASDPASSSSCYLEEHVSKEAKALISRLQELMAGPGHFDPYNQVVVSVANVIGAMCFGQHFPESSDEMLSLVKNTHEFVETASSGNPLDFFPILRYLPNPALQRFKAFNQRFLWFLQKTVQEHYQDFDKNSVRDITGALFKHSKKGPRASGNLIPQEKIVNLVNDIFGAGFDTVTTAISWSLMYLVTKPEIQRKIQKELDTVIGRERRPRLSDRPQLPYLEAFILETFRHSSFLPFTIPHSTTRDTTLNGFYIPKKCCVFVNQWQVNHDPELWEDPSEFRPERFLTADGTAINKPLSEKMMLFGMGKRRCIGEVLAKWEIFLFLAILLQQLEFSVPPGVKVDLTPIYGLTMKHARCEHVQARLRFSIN
The experiment in a line: Inhibition of human liver microsomal CYP1A2 (phenacetin probe). Format: in vitro ADME. The conditions noted are these: human liver microsomes. As to the method: (§1) Experimental Example 6: Inhibitory effect on activity of isoenzymes (CYP1A2, CYP2C9, CYP2C19, CYP2D6 and CYP3A4) of human liver microsomal cytochrome P450 A total of 5 specific probe substrates of 5 isoenzymes of CYP, namely phenacetin (CYP1A2), diclofenac (CYP2C9), (S)-mephenytoin (CYP2C19), dextromethorphan (CYP2D6) and midazolam (CYP3A4) were each co-incubated with human liver microsomes and the compound of formula (I), and then reduced nicotinamide adenine dinucleotide phosphate (NADPH) was added to initiate the reaction. After the reaction was completed, the samples were treated, and the concentrations of 5 metabolites (acetaminophen, 4′-hydroxydiclofenac, 4′-hydroxymephenytoin, dextrorphan and l′-hydroxymidazolam) generated from the specific substrates were quantitatively detected by lC-MS/MS to calculate the correcnondino- half maximal inhibitory concentrationc (IC50)
For orientation: Liver microsomes are a subcellular fraction often used to study metabolism.

Another assay concerns the target T3, CYP2C9 (Homo sapiens, UniProt P11712).
T3 construct: co-incubated with human liver microsomes; from tissue; host or cells: human liver microsomes
The experiment in a line: Inhibition of human liver microsomal CYP2C9 (diclofenac probe). Format: in vitro ADME. The conditions noted are these: human liver microsomes. Here is the method:
as §1

The target of a further assay is T4, CYP2C19 (Homo sapiens, UniProt P33261).
T4 construct: co-incubated with human liver microsomes; from tissue; host or cells: human liver microsomes
Nature of the assay: Inhibition of human liver microsomal CYP2C19 ((S)-mephenytoin probe). It counts as in vitro ADME. The conditions noted are these: human liver microsomes. As to the method:
as §1

The target in a further assay is T5, CYP2D6 (Homo sapiens, UniProt P10635).
T5 construct: co-incubated with human liver microsomes; from tissue; host or cells: human liver microsomes
Nature of the assay: Inhibition of human liver microsomal CYP2D6 (dextromethorphan probe). Format: in vitro ADME. To be noted: human liver microsomes. Here is the method:
as §1

Another assay addresses T6, CYP3A4 (Homo sapiens, UniProt P08684).
T6 construct: co-incubated with human liver microsomes; from tissue; host or cells: human liver microsomes
Nature of the assay: Inhibition of human liver microsomal CYP3A4 (midazolam probe). It counts as in vitro ADME. The conditions noted are these: human liver microsomes. Here is the method:
as §1

Assay [1] has as its system cigarette smoke-induced rat acute lung injury model. The experiment in a line: Pharmacodynamic study in cigarette smoke-induced rat acute lung injury model. To be noted: rats, atomized 0.05 or 0.15 mg/mL for 30 min daily. Format: in vivo, Sprague-Dawley rats. Here is the method: Experimental Example 7: Pharmacodynamic study in cigarette smoke-induced rat acute lung injury model
Male Sprague-Dawley rats (supplied by Shanghai SLAC Laboratory Animal Co., Ltd.), SPF grade, approximately 200 g.
Procedures • 1. Animals were randomly divided into 6 groups according to body weight after arrival and a one-week acclimation; • 2. On days 1-3 of the experiment, the corresponding compound of each group was atomized for 30 min. Then the animals in the model group and the treatment groups were exposed to cigarette smoke for 1 h, and after a 4-h interval, the animals were exposed to cigarette smoke again for 1 h. Cigarette smoke was given twice daily for 3 consecutive days. The control group animals were exposed to room air; • 3. On day 4 of the experiment, the corresponding compound of each group was atomized for 30 min, and then the animals in the model group and the treatment groups were given the atomized 150 μg/mL LPS for 15 min by inhalation. After 3 h (from the time starting atomization), the animals were exposed to cigarette smoke for 1 h, and then the lung function (Penh and F) of the animals was examined; bronchoalveolar lavage fluid (BALF) was collected for cell counting after the animals were euthanized with CO2. • 4. […]

The subject of assay [2] is TNF-α in human peripheral blood mononuclear cells. The experiment in a line: Inhibitory activity against TNF-α in LPS-stimulated hPBMCs (ELISA). The conditions noted are these: PBMC, 1 ng/mL LPS, 24 h, read-out: hPBMC IC50 (TNF-α). Format: cell-based. The source says:
Experimental Example 8: In vitro detection of the inhibitory activity of the compound against TNF-α in human peripheral blood mononuclear cells Objective: to measure the anti-inflammatory activity at cellular level of the test compound based on the level of TNF-α in human peripheral blood mononuclear cells (hPBMCs).
Procedures: • 1. Normal human whole blood was collected into an EDTA anticoagulation tube; • 2. The PBMC was separated by Ficoll density gradient centrifugation and counted, and the cell concentration was adjusted to 2×10^6 cells/mL; • 3. To each well of a U-bottom 96-well plate were added 2×10^5 cells, 1 ng/mL LPS, and solutions of the compound of formula (I) in DMSO at concentrations of […], 1 μM, 100 nM, 10 nM, 1 nM, 100 pM and 10 pM, with a system volume of 200 μL per well; • 4. The mixture was incubated for 24 h, and then the supernatant was collected; • 5. The level of TNF-α in the supernatant was detected by ELISA, an inhibition curve was fitted using Graphpad Prism software, and the IC50 was calculated.
Background: ELISA stands for enzyme-linked immunosorbent assay.

Experimental findings from patent US20230060174A1, “PHARMACEUTICAL COMPOSITION OF TRICYCLIC PDE3/PDE4 DUAL INHIBITOR COMPOUND” (CHIA TAI TIANQING PHARMACEUTICAL GROUP CO., LTD., priority 2020, published 2023) are described below.

T3 sequence (P11712 whole entry): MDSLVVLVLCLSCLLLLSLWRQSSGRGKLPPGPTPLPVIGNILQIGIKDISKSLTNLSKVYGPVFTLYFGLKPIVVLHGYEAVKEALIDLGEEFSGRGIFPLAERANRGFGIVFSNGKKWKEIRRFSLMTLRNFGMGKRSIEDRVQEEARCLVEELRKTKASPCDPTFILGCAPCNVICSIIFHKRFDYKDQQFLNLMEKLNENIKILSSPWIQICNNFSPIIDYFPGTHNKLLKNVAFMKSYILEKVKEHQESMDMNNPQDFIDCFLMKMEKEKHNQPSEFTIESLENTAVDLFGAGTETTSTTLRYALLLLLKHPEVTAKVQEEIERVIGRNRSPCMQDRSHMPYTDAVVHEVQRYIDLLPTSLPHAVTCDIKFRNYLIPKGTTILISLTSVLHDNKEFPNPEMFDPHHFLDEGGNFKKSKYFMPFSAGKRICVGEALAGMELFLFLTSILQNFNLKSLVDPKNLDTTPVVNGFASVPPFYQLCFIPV
T6 sequence (P08684 whole entry): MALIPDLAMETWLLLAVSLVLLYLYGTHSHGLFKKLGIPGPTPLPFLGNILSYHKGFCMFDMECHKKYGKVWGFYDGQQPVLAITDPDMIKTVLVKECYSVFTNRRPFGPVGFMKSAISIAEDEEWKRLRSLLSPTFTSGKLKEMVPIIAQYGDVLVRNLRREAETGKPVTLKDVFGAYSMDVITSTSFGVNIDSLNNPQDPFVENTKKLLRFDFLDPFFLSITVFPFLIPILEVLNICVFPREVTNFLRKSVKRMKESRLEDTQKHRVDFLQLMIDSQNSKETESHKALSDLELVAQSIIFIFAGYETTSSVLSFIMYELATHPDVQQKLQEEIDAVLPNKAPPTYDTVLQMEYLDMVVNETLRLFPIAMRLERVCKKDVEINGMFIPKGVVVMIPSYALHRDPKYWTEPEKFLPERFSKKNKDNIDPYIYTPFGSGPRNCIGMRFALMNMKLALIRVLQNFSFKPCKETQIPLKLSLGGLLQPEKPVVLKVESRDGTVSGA
T4 sequence (P33261 whole entry): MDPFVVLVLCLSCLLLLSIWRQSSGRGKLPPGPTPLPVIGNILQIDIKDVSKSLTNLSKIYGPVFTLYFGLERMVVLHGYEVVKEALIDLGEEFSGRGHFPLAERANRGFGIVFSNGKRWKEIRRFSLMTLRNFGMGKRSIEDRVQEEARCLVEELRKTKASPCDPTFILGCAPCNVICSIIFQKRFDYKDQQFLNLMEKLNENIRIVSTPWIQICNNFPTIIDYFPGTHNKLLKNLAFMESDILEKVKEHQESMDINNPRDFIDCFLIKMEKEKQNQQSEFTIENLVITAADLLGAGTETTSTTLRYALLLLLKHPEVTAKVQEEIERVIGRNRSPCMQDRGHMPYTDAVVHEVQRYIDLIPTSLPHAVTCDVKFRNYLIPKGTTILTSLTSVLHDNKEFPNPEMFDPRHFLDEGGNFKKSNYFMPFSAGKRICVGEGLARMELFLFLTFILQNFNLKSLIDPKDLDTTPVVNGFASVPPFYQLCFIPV
T5 sequence (P10635 whole entry): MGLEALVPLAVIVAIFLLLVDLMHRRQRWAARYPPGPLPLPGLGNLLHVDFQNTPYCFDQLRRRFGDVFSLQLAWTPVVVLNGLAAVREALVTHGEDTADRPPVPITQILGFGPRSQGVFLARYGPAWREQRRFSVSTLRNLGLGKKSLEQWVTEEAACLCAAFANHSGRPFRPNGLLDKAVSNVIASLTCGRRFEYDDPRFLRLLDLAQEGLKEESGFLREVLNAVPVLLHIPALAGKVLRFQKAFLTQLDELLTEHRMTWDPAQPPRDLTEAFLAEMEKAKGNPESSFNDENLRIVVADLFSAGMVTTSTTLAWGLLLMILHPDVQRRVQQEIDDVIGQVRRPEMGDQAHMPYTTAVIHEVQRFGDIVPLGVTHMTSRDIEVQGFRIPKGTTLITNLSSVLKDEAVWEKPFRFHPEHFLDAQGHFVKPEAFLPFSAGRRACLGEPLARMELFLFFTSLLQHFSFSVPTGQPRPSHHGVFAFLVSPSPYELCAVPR
T1 sequence (Q07343 305-736 limits assumed): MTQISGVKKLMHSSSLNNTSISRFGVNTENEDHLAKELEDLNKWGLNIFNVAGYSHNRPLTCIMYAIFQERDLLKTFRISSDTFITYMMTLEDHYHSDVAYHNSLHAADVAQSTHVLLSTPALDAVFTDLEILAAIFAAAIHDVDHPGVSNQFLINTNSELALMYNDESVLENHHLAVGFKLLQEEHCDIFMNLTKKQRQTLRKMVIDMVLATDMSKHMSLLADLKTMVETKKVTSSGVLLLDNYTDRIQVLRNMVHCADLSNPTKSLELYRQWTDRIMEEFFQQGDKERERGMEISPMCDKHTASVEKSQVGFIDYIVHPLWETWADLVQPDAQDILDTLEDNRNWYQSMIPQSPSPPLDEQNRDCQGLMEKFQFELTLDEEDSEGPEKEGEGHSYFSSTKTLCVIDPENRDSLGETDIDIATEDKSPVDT

As a reminder, the IC50 is the concentration at which inhibition is half-maximal. Consider `CCOc1cc2c(cc1OC)-c1c/c(=N\c3c(C)cc(C)cc3C)n(CCNC(=O)c3c(O)nnn3C)c(=O)n1CC2` [Compound of formula (I)], for which the IC50 on recombinant human PDE4B is 0.00041 µM; at CYP1A2 it was no less than 50 µM; at CYP2C9 it was 31 µM; against CYP2C19, no less than 50 µM; against CYP2D6, no less than 50 µM; at CYP3A4, no less than 50 µM. In addition, in assay [2], the IC50 amounted to 0.0292 µM. Moreover, in assay [1] (FIG. 5), the “Number of white blood cells in the bronchoalveolar lavage fluid” value is on record as “effectively reduce”. Besides, in assay [1] (FIG. 6), the “Airway resistance index Penh (Mch challenge pulmonary function test)” value was “effectively reduce”.
